# Results: PubChem BioAssay (NCI)
#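 All cell lines were grown in 96-well plates and treated with compound for 48 hours. The concentration for 50% growth inhibition is given as GI50. TGI: concentration producing complete growth inhibition.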
# Tests used:
# Assay in all cases: growth of human tumour cells (NCI), 48 h
# DU-145 prostate = test system: DU-145 prostate
# KM12 colon = test system: KM12 colon
# NCI-H460 lung = test system: NCI-H460 lung
# MDA-MB-435 = test system: MDA-MB-435
# UACC-62 melanoma = test system: UACC-62 melanoma
# SN12C renal = test system: SN12C renal
# HCT-116 colon = test system: HCT-116 colon
# SK-MEL-5 melanoma = test system: SK-MEL-5 melanoma
# T-47D breast = test system: T-47D breast
# SF-295 CNS = test system: SF-295 CNS
# M14 melanoma = test system: M14 melanoma
# OVCAR-8 ovarian = test system: OVCAR-8 ovarian
# OVCAR-5 ovarian = test system: OVCAR-5 ovarian
# LOX IMVI melanoma = test system: LOX IMVI melanoma
# RPMI-8226 leukemia = test system: RPMI-8226 leukemia
# A498 renal = test system: A498 renal
# IGROV1 ovarian = test system: IGROV1 ovarian
# MCF7 breast = test system: MCF7 breast
# COLO 205 colon = test system: COLO 205 colon
# NCI-H23 lung = test system: NCI-H23 lung
# UO-31 renal = test system: UO-31 renal
# U251 CNS = test system: U251 CNS
# SF-539 CNS = test system: SF-539 CNS
# SK-MEL-2 melanoma = test system: SK-MEL-2 melanoma
# EKVX NSCLC = test system: EKVX NSCLC
# CCRF-CEM leukemia = test system: CCRF-CEM leukemia
# HL-60(TB) leukemia = test system: HL-60(TB) leukemia
# HT29 colon = test system: HT29 colon
# OVCAR-4 ovarian = test system: OVCAR-4 ovarian
# SR leukemia = test system: SR leukemia
# RXF 393 renal = test system: RXF 393 renal
# SNB-19 CNS = test system: SNB-19 CNS
# MDA-MB-231 breast = test system: MDA-MB-231 breast
# MOLT-4 leukemia = test system: MOLT-4 leukemia
# HOP-92 NSCLC = test system: HOP-92 NSCLC
# HCC-2998 colon = test system: HCC-2998 colon
# SK-OV-3 ovarian = test system: SK-OV-3 ovarian
# ACHN renal = test system: ACHN renal
# CAKI-1 renal = test system: CAKI-1 renal
# PC-3 prostate = test system: PC-3 prostate
# OVCAR-3 ovarian = test system: OVCAR-3 ovarian
# HCT-15 colon = test system: HCT-15 colon
# MALME-3M melanoma = test system: MALME-3M melanoma
# 786-0 renal = test system: 786-0 renal
# K-562 leukemia = test system: K-562 leukemia
# TK-10 renal = test system: TK-10 renal
# BT-549 breast = test system: BT-549 breast
# NCI-H522 lung = test system: NCI-H522 lung
# HS 578T breast = test system: HS 578T breast
# SK-MEL-28 melanoma = test system: SK-MEL-28 melanoma
# A549 NSCLC = test system: A549 NSCLC
# SW-620 colon = test system: SW-620 colon
# SNB-75 CNS = test system: SNB-75 CNS
# SF-268 CNS = test system: SF-268 CNS
# NCI-H226 lung = test system: NCI-H226 lung
# HOP-62 NSCLC = test system: HOP-62 NSCLC
# NCI/ADR-RES ovarian = test system: NCI/ADR-RES ovarian
# UACC-257 melanoma = test system: UACC-257 melanoma
smiles,measurement,setting,value
O=C1Nc2ccccc2/C1=C1\CCc2cc(O)ccc21,GI50,DU-145 prostate,11.4 µM
same,TGI,DU-145 prostate,> 25 µM
same,GI50,KM12 colon,1.01 µM
same,TGI,KM12 colon,> 25 µM
same,GI50,NCI-H460 lung,8.7 µM
same,TGI,NCI-H460 lung,> 25 µM
same,GI50,MDA-MB-435,2.24 µM
same,TGI,MDA-MB-435,> 25 µM
same,GI50,UACC-62 melanoma,7.73 µM
same,TGI,UACC-62 melanoma,> 25 µM
same,GI50,SN12C renal,7.84 µM
same,TGI,SN12C renal,> 25 µM
same,GI50,HCT-116 colon,8.79 µM
same,TGI,HCT-116 colon,> 25 µM
same,GI50,SK-MEL-5 melanoma,6.62 µM
same,TGI,SK-MEL-5 melanoma,> 25 µM
same,GI50,T-47D breast,6.35 µM
same,TGI,T-47D breast,> 25 µM
same,GI50,SF-295 CNS,11.3 µM
same,TGI,SF-295 CNS,> 25 µM
same,GI50,M14 melanoma,7.18 µM
same,TGI,M14 melanoma,> 25 µM
same,GI50,OVCAR-8 ovarian,10.4 µM
same,TGI,OVCAR-8 ovarian,> 25 µM
same,GI50,OVCAR-5 ovarian,16.1 µM
same,TGI,OVCAR-5 ovarian,> 25 µM
same,GI50,LOX IMVI melanoma,6.5 µM
same,TGI,LOX IMVI melanoma,> 25 µM
same,GI50,RPMI-8226 leukemia,9.71 µM
same,TGI,RPMI-8226 leukemia,> 25 µM
same,GI50,A498 renal,5.65 µM
same,TGI,A498 renal,17.8 µM
same,GI50,IGROV1 ovarian,7.63 µM
same,TGI,IGROV1 ovarian,> 25 µM
same,GI50,MCF7 breast,2.74 µM
same,TGI,MCF7 breast,> 25 µM
same,GI50,COLO 205 colon,12.4 µM
same,TGI,COLO 205 colon,> 25 µM
same,GI50,NCI-H23 lung,7.07 µM
same,TGI,NCI-H23 lung,> 25 µM
same,GI50,UO-31 renal,1.67 µM
same,TGI,UO-31 renal,> 23.9 µM
same,GI50,U251 CNS,8.84 µM
same,TGI,U251 CNS,> 25 µM
same,GI50,SF-539 CNS,9.64 µM
same,TGI,SF-539 CNS,> 25 µM
same,GI50,SK-MEL-2 melanoma,9.99 µM
same,TGI,SK-MEL-2 melanoma,> 25 µM
same,GI50,EKVX NSCLC,4.17 µM
same,TGI,EKVX NSCLC,> 25 µM
same,GI50,CCRF-CEM leukemia,7.19 µM
same,TGI,CCRF-CEM leukemia,> 25 µM
same,GI50,HL-60(TB) leukemia,6.65 µM
same,TGI,HL-60(TB) leukemia,> 21.5 µM
same,GI50,HT29 colon,9.77 µM
same,TGI,HT29 colon,> 25 µM
same,GI50,OVCAR-4 ovarian,7.02 µM
same,TGI,OVCAR-4 ovarian,> 25 µM
same,GI50,SR leukemia,4.25 µM
same,TGI,SR leukemia,> 25 µM
same,GI50,RXF 393 renal,9.85 µM
same,TGI,RXF 393 renal,> 25 µM
same,GI50,SNB-19 CNS,13.2 µM
same,TGI,SNB-19 CNS,> 25 µM
same,GI50,MDA-MB-231 breast,7.22 µM
same,TGI,MDA-MB-231 breast,> 25 µM
same,GI50,MOLT-4 leukemia,12.2 µM
same,TGI,MOLT-4 leukemia,> 25 µM
same,GI50,HOP-92 NSCLC,5.93 µM
same,TGI,HOP-92 NSCLC,22.8 µM
same,GI50,HCC-2998 colon,9.41 µM
same,TGI,HCC-2998 colon,> 25 µM
same,GI50,SK-OV-3 ovarian,8.5 µM
same,TGI,SK-OV-3 ovarian,> 25 µM
same,GI50,ACHN renal,10.6 µM
same,TGI,ACHN renal,> 25 µM
same,GI50,CAKI-1 renal,7.12 µM
same,TGI,CAKI-1 renal,> 25 µM
same,GI50,PC-3 prostate,12.4 µM
same,TGI,PC-3 prostate,> 25 µM
same,GI50,OVCAR-3 ovarian,9.95 µM
same,TGI,OVCAR-3 ovarian,> 25 µM
same,GI50,HCT-15 colon,5.26 µM
same,TGI,HCT-15 colon,> 25 µM
same,GI50,MALME-3M melanoma,8.11 µM
same,TGI,MALME-3M melanoma,> 25 µM
same,GI50,786-0 renal,19.2 µM
same,TGI,786-0 renal,> 25 µM
same,GI50,K-562 leukemia,9.09 µM
same,TGI,K-562 leukemia,> 25 µM
same,GI50,TK-10 renal,10.7 µM
same,TGI,TK-10 renal,> 25 µM
same,GI50,BT-549 breast,8.47 µM
same,TGI,BT-549 breast,> 24.2 µM
same,GI50,NCI-H522 lung,9.85 µM
same,TGI,NCI-H522 lung,> 25 µM
same,GI50,HS 578T breast,7.12 µM
same,TGI,HS 578T breast,> 25 µM
same,GI50,SK-MEL-28 melanoma,15.3 µM
same,TGI,SK-MEL-28 melanoma,> 25 µM
same,GI50,A549 NSCLC,9.45 µM
same,TGI,A549 NSCLC,> 25 µM
same,GI50,SW-620 colon,8.05 µM
same,TGI,SW-620 colon,> 25 µM
same,GI50,SNB-75 CNS,8.06 µM
same,TGI,SNB-75 CNS,> 25 µM
same,GI50,SF-268 CNS,10.1 µM
same,TGI,SF-268 CNS,> 25 µM
same,GI50,NCI-H226 lung,12.4 µM
same,TGI,NCI-H226 lung,> 25 µM
same,GI50,HOP-62 NSCLC,9.95 µM
same,TGI,HOP-62 NSCLC,> 25 µM
same,GI50,NCI/ADR-RES ovarian,7.65 µM
same,TGI,NCI/ADR-RES ovarian,> 25 µM
same,GI50,UACC-257 melanoma,9.47 µM
same,TGI,UACC-257 melanoma,> 25 µM
